Results from patent US20170119034A1, “COMPOSITIONS AND METHODS FOR MODIFYING PERCEPTION OF SWEET TASTE” (University of Florida Research Foundation, Inc., priority 2012, published 2017).

Legend:
Assay type in all cases: in vivo, human
[1] = test system: texture liking of strawberry fruit (consumer panel); experiment: Strawberry consumer panel: bivariate fit to texture liking; settings: bivariate linear fit; X = content of the substance in strawberry fruit, Y = Texture liking
Method: (§1) All consumer panels were approved by the University of Florida Institutional Review Board. […] Ages of panelist ranged from 18 to 71, with a median age of 24. Panelists self-classified themselves as 98 White or Caucasian, 11 Black or African-American, 1 Native American, Alaska Native or Aleutian, 41 Asian/Pacific Islander, and 15 Other. […] Fresh, fully-ripe strawberry fruit was removed from overnight 4° C. dark storage and allowed to warm to room temperature prior to sensory analysis. Each panelist was given one to two whole strawberries for evaluation, depending on cultivar availability. Panelist took a bite of each sample, chewed, and swallowed it. Ratings for overall liking and liking for texture were scaled on hedonic general labeled magnitude scale (gLMS) in the context of all pleasure/displeasure experiences. […] Scales were employed to mediate valid comparisons across subjects and sessions.
(§2) Bivariate analysis among individual measurements of samples allowed for linear fit, which includes summary of fit, analysis of variance, t-test, and correlation analysis for density ellipse. Two-way Ward hierarchical cluster analysis of all metabolite concentrations and strawberry samples accomplished in JMP.

[2] = test system: strawberry flavor intensity (consumer panel); experiment: Strawberry consumer panel: bivariate fit to strawberry flavor intensity; settings: for Parameter Estimates: Estimate: bivariate linear fit, X = content of the substance in strawberry fruit, Y = Flavor Intensity (FI); for relationship to strawberry flavor intensity / sensory perception: in words
Method: as §1, §2

[3] = test system: perceived sweetness intensity of strawberry fruit (consumer panel); experiment: Strawberry consumer panel: multiple regression of volatile concentration against perceived sweetness intensity independent of glucose, fructose or sucrose; settings: for enhancement of perceived intensity of sweetness independent of sugars: in words; for negatively related to sweetness: sugar(s) of which the effect is independent: compounds negatively related to sweetness independent of at least one of the sugars; for FRUCTOSE t RATIO: volatile concentration regressed against perceived sweetness intensity independent of fructose; for GLUCOSE t RATIO: volatile concentration regressed against perceived sweetness intensity independent of glucose; for SUCROSE t RATIO: volatile concentration regressed against perceived sweetness intensity independent of sucrose
Method: Step-wise multiple regressions of all volatile compounds against perceived intensity of sweetness is performed independent of either glucose, fructose, or sucrose concentration, separately (Table 6).
as §1
Multiple regressions were performed with the “enter” method in SPSS for identification of sweetness enhancing volatiles. Individual volatile compound concentrations were regressed using the “enter” method in SPSS Statistics (IBM Corp, Armonk, N.Y., USA).

Compound	Parameter Estimates-fit to Texture Liking: Estimate [1]	Parameter Estimates: Estimate [2]	also measured
O=C(O)CC(O)C(=O)O (stereo not drawn) [Malic]	0.05905	0.001142	–
CCCCCOC(=O)CCC [540-18-1, pentyl butyrate]	–	–	enhancement of perceived intensity of sweetness independent of sugars [3]: mutually independent of all three sugar
CC(=O)OCC=C(C)C [1191-16-8, 3-methyl-2-buten-1-yl acetate]	–	–	negatively related to sweetness: sugar(s) of which the effect is independent [3]: exclusively independent of sucrose
CCCCCCCCOC(=O)CC(C)C [7786-58-5, octyl 3-methylbutanoate]	–	–	enhancement of perceived intensity of sweetness independent of sugars [3]: show evidence of enhancing perceived sweetness intensity independent of individual sugars
CCCCCC=O [66-25-1]	0.0005099	0.0002842	relationship to strawberry flavor intensity / sensory perception [2]: does not have a significant correlation to flavor intensity
CC/C=C/C=O [1576-87-0, (E)-pent-2-en-1-al]	–	–	relationship to strawberry flavor intensity / sensory perception [2]: enhancing toward flavor intensity
CSC(C)=O [1534-08-3]	0.06449	1.808	–
CCCCC(CC)COC(C)=O (stereo not drawn) [103-09-3]	−1.955	0.01965	–
C/C=C/C(=O)OC [623-43-8]	−0.7133	−0.101	–
COC1=C(C)OC(C)C1=O (stereo not drawn) [4077-47-8, 4-methoxy-2,5-dimethyl-3(2H)-furanone]	–	–	relationship to strawberry flavor intensity / sensory perception [2]: significant positive correlation with flavor intensity
CCCCCC(C)=O [110-43-0]	0.07262	0.06351	FRUCTOSE t RATIO [3]: 1.054; GLUCOSE t RATIO [3]: 0.657; SUCROSE t RATIO [3]: 1.899
CCCCCOC(C)=O [628-63-7]	−0.1907	0.4892	–
CCCOC(C)=O [109-60-4]	−0.5137	−0.05307	–
CCCCCO [71-41-0]	0.3727	0.2445	–
CCCCC/C=C\C=O [20664-46-4]	−0.04121	0.03985	–
CCC(C)(C)O [75-85-4]	0.3219	0.1051	–
CCCCCCC=O [111-71-7, heptanal]	–	–	enhancement of perceived intensity of sweetness independent of sugars [3]: show evidence of enhancing perceived sweetness intensity independent of individual sugars
CCOC(=O)CC [105-37-3]	−0.01062	−0.01371	–
CCCC(=O)OC [623-42-7]	6.892e−05	0.0008905	relationship to strawberry flavor intensity / sensory perception [2]: significant positive correlation with flavor intensity

Compound	Parameter Estimates-fit to Texture Liking: Estimate [1]	Parameter Estimates: Estimate [2]	also measured
CCCCCCCC=O [124-13-0]	−0.2865	0.3091	–
CC(=O)CC(C)C [108-10-1, 4-Methyl-2-pentanone]	–	–	negatively related to sweetness: sugar(s) of which the effect is independent [3]: mutually independent of glucose and fructose
CCC/C=C/CO [928-95-0]	−0.0133	−0.0006379	–
CCCCC=O [110-62-3]	0.1789	−0.1249	relationship to strawberry flavor intensity / sensory perception [2]: negatively correlated to flavor
CC(=O)OCc1ccccc1 [140-11-4]	−0.0849	0.02204	–
CCCCCCO [111-27-3]	−0.01204	−0.001886	FRUCTOSE t RATIO [3]: −1.253; GLUCOSE t RATIO [3]: −1.481; SUCROSE t RATIO [3]: −0.542
CCCCC(=O)OC [624-24-8]	0.2596	−0.1	–
CC/C=C\CO [1576-95-0]	0.1369	−0.006042	FRUCTOSE t RATIO [3]: −0.186; GLUCOSE t RATIO [3]: −0.231; SUCROSE t RATIO [3]: −0.304
O=C(O)CC(O)(CC(=O)O)C(=O)O [Citric]	−0.001831	0.01293	–
C=CC(=O)CC [1629-58-9, 1-penten-3-one]	–	–	enhancement of perceived intensity of sweetness independent of sugars [3]: mutually independent of all three sugar
CCCCOC(=O)CC(C)C [109-19-3, butyl 3-methylbutanoate]	–	–	enhancement of perceived intensity of sweetness independent of sugars [3]: show evidence of enhancing perceived sweetness intensity independent of individual sugars
CCCCCC(=O)OCC [123-66-0]	−0.0003354	0.002386	relationship to strawberry flavor intensity / sensory perception [2]: no bearing on sensory perception
CCCCCCCCOC(=O)C(C)CC (stereo not drawn) [29811-50-5]	−0.1411	0.1055	–
C=C(C)C1CC=C(COC(C)=O)CC1 (stereo not drawn) [15111-96-3]	−0.1056	−0.2365	–
COC(=O)CC(C)C [556-24-1]	−0.03139	0.009438	FRUCTOSE t RATIO [3]: 0.732; GLUCOSE t RATIO [3]: 0.88; SUCROSE t RATIO [3]: 0.972
CCCC(=O)OC(C)CCC (stereo not drawn) [60415-61-4, 2-pentanyl butyrate]	–	–	enhancement of perceived intensity of sweetness independent of sugars [3]: mutually independent of all three sugar
CCCCCCCC(C)=O [821-55-6]	0.09508	0.06252	FRUCTOSE t RATIO [3]: −0.267; GLUCOSE t RATIO [3]: −0.467; SUCROSE t RATIO [3]: 1.192
C=CC(C)(O)CC/C=C(\C)CCC=C(C)C (stereo not drawn) [40716-66-3]	0.01941	0.01223	–
CCCCC/C=C/C=O [2548-87-0]	1.345	0.6039	–

Compound	Parameter Estimates-fit to Texture Liking: Estimate [1]	Parameter Estimates: Estimate [2]	also measured
CCC(O)C(=O)OC (stereo not drawn) [29674-47-3]	0.02693	0.207	–
CCCC(=O)OCC [105-54-4, ethyl butyrate]	–	–	relationship to strawberry flavor intensity / sensory perception [2]: significant positive correlation with flavor intensity
Cc1cc(C(C)(C)C)c(O)c(C(C)(C)C)c1 [128-37-0]	0.2009	0.1227	–
CCCCCCOC(C)=O [142-92-7, hexyl acetate]	–	–	enhancement of perceived intensity of sweetness independent of sugars [3]: mutually independent of all three sugar
CCC/C=C/COC(C)=O [2497-18-9]	−0.02456	0.008248	–
CC(=O)OCCC(C)C [123-92-2]	−0.07997	0.005816	–
CCCC(=O)CC [589-38-8]	0.4306	0.4621	–
CCC(C)COC(C)=O (stereo not drawn) [624-41-9]	−0.03512	0.009696	–
CCCCCCOC(=O)CCC [2639-63-6, hexyl butyrate]	–	–	enhancement of perceived intensity of sweetness independent of sugars [3]: mutually independent of all three sugar
CCCCC(=O)OCC [539-82-2, ethyl valerate]	–	–	enhancement of perceived intensity of sweetness independent of sugars [3]: show evidence of enhancing perceived sweetness intensity independent of individual sugars
CCCCCCCC(=O)OCC [106-32-1, ethyl octanoate]	–	–	negatively related to sweetness: sugar(s) of which the effect is independent [3]: exclusively independent of glucose
CCCCC(=O)C(C)=O [96-04-8]	−0.09953	0.01959	–
CCCCCCCCC1CCC(=O)O1 (stereo not drawn) [2305-05-7, 5-octyldihydro-2(3H)-furanone]	–	–	enhancement of perceived intensity of sweetness independent of sugars [3]: mutually independent of all three sugar
CC=C(C)C(=O)OCC [55514-48-2]	−2.984	−0.1506	–
C=C[C@]1(C)CC[C@H](C(C)(C)O)O1 [5989-33-3]	0.6605	0.7378	–
COC(=O)c1ccccc1N [134-20-3]	−4.493	−0.8484	–
CCCCCCC1CCC(=O)O1 (stereo not drawn) [706-14-9]	0.01485	0.02049	–
CCC(=O)CC [96-22-0]	0.004596	0.05443	–
C=CC(O)CC (stereo not drawn) [616-25-1]	0.06401	0.2097	–
